How the values were obtained:
[1] = test system: Rat aortic rings; test: Calcium content of rat aortic rings cultured ex vivo in procalcifying conditions (O-Cresolphthalein colorimetric assay); format: cell-based; conditions: Pi 3.8 mM, 7 days; for Effect on calcium content of rat aortas (in words): procalcifying conditions; for Aortic calcium content: Pi alone = 100%
Experimental: Materials and methods: Rat aortic rings were cultured in procalcifying conditions using inorganic phosphate (Pi: 3.8 mM) for 7 days. […] Rat aortic calcium content was determined using a calcium colorimetric assay with O-Cresolphthalein.
(§1) Materials and methods: Rat aortic rings were cultured in procalcifying conditions using inorganic phosphate (Pi: 3.8 mM) for 7 days. N-acetyl-S-farnesyl-L-cysteine (AFC)—sEH phosphatase domain inhibitor—was added at concentrations, ranging from 0.1 to 10 μM (n=4-21 per group). Rat aortic calcium content was determined using a calcium colorimetric assay with O-Cresolphthalein.
Materials and methods: Rat aortic rings were cultured in procalcifying conditions using inorganic phosphate (Pi: 3.8 mM) for 7 days in absence and in presence of ebselen at a concentration of 1 and 10 μM (n=6-8 per group).

[2] = test system: Human valvular interstitial cells (VICs); test: Calcium content of human valvular interstitial cells cultured in procalcifying conditions (O-Cresolphthalein colorimetric assay); format: cell-based; conditions: Pi 3 mM; for VICs calcium content: mean±SEM; for Effect on calcium content of valvular interstitial cells (in words): procalcifying conditions
Experimental: as §1, with “Human valvular interstitial cells (VICs)” for “Rat aortic rings”, “3” for “3.8”, “14” for “7”, “5” for “10”, “(n=5-6” for “(n=4-21”, “VICs” for “Rat”
Materials and methods: Human valvular interstitial cells (VICs) were cultured in procalcifying conditions using inorganic phosphate (Pi: 3 mM) for 10 days. Ebselen—sEH phosphatase domain inhibitor—was added at the concentrations of 0.1 and 1 μM (n=4 per group). VICs aortic calcium content was determined using a calcium colorimetric assay with O-Cresolphthalein.

[3] = rat aortic rings, compound 1 μM
[4] = rat aortic rings, compound 10 μM

O=c1c2ccccc2[se]n1-c1ccccc1 [ebselen]
Effect on calcium content of rat aortas (in words) [1]: dose-dependently reduces | Aortic calcium content [1, 3]: 77±8% | Aortic calcium content [1, 4]: 62±7% | VICs calcium content ([2]; human VICs, 10 days, compound 0.1 μM, Pi alone = 100%): 88.8±11% | VICs calcium content ([2]; human VICs, 10 days, compound 1 μM, Pi alone = 100%): 67.6±7.2% | Effect on calcium content of valvular interstitial cells (in words) ([2]; 10 days): dose-dependently reduces

CC(=O)N[C@@H](CSC/C=C(\C)CC/C=C(\C)CCC=C(C)C)C(=O)O [AFC, N-acetyl-S-farnesyl-L-cysteine]
Effect on calcium content of rat aortas (in words) [1]: dose-dependently reduces | Alizarin Red and VonKossa histochemical staining ([1]; rat aortic rings): confirmed these results | Aortic calcium content ([1]; rat aortic rings, compound 0.1 μM): 83.6±9.1% | Aortic calcium content [1, 3]: 74.2±2.9% | Aortic calcium content [1, 4]: 54.5±12% | Alizarin Red staining ([2]; human VICs, 14 days): confirmed these results | VICs calcium content ([2]; human VICs, 14 days, compound 0.1 μM, Pi alone 90.3±4.6 μg): 76.7 ± 5.7 µg | VICs calcium content ([2]; human VICs, 14 days, compound 1 μM, Pi alone 90.3±4.6 μg): 51.1 ± 2.9 µg | VICs calcium content ([2]; human VICs, 14 days, compound 5 μM, Pi alone 90.3±4.6 μg): 45.8 ± 2 µg | Effect on calcium content of valvular interstitial cells (in words) ([2]; 14 days): dose-dependently reduces
